ChEMBL document CHEMBL4414548 (J Med Chem, 2019)

Key:
[1] = molecular target: T1, Non-receptor tyrosine-protein kinase TYK2 (Homo sapiens, UniProt P29597); test: Inhibition of fluorescein-labeled kinase tracer binding to His-TVMV-fused TYK2 JH2 domain (575 to 869 residues) (unknown origin) measured after 90 mins by HTRF assay
[2] = molecular target: T1, Non-receptor tyrosine-protein kinase TYK2; test: Inhibition of TYK2 JH1 domain (unknown origin)
[3] = molecular target: Tyrosine-protein kinase JAK1 (Homo sapiens, UniProt P23458); test: Inhibition of JAK1 JH1 domain (unknown origin)
[4] = molecular target: Tyrosine-protein kinase JAK2 (Homo sapiens, UniProt O60674); test: Inhibition of JAK2 JH1 domain (unknown origin)
[5] = molecular target: JAK1/TYK2 (Homo sapiens, UniProt P23458+P29597); test: Inhibition of TYK2/JAK1 in IFNalpha-stimulated human Kit225 cells by steady-glo luciferase assay
[6] = molecular target: T1, Non-receptor tyrosine-protein kinase TYK2; test: Inhibition of TYK2 JH2 domain in human whole blood assessed as inhibition of IFNalpha-induced STAT5 phosphorylation preincubated for 1 hr followed by IFNalpha stimulation and measured after 15 mins by fluorescence assay; assay type: tissue-based
[7] = Permeability across apical to basolateral side in human Caco2 cells; assay type: ADME, cell-based; settings: Caco-2, read-out: permeability
[8] = Efflux ratio of permeability in human Caco2; assay type: ADME, cell-based; settings: Caco-2
[9] = molecular target: Non-receptor tyrosine-protein kinase TYK2 (Mus musculus, UniProt Q9R117); test: Inhibition of TYK2 JH2 domain in mouse whole blood assessed as inhibition of IFNalpha-induced STAT1 phosphorylation preincubated for 1 hr followed by IFNalpha stimulation and measured after 15 mins by fluorescence assay; assay type: tissue-based
[10] = Half life in human liver microsomes; assay type: ADME, Microsome
[11] = Half life in rat liver microsomes; assay type: ADME, Microsome
[12] = Half life in mouse liver microsomes; assay type: ADME, Microsome
[13] = Half life in cynomolgus monkey liver microsomes; assay type: ADME, Macaca fascicularis, Microsome
[14] = Half life in dog liver microsomes; assay type: ADME, Canis lupus familiaris, Microsome
[15] = Partition coefficient, log P of compound by HPLC analysis; assay type: physicochemical; settings: octanol/water
[16] = Cmax in mouse at 10 mg/kg, po after 7 hrs; assay type: ADME, organism-based; set-up: dose 10 mg/kg, route oral; settings: in vivo
[17] = AUClast in mouse at 10 mg/kg, po after 7 hrs; assay type: ADME, organism-based; set-up: time < 7 hr, dose 10 mg/kg, route oral; settings: in vivo
[18] = Drug concentration in IL12/IL18-induced C57BL/6 mouse serum at 0.3 mg/kg, po pretreated for 1 hr followed by IL12 stimulation and subsequent IL18 addition and measured after 5 hrs; assay type: ADME, organism-based; settings: read-out: Drug uptake
[19] = Drug concentration in IL12/IL18-induced C57BL/6 mouse serum at 1 mg/kg, po pretreated for 1 hr followed by IL12 stimulation and subsequent IL18 addition and measured after 5 hrs; assay type: ADME, organism-based; settings: read-out: Drug uptake
[20] = Drug concentration in IL12/IL18-induced C57BL/6 mouse serum at 3 mg/kg, po pretreated for 1 hr followed by IL12 stimulation and subsequent IL18 addition and measured after 5 hrs; assay type: ADME, organism-based; settings: read-out: Drug uptake
[21] = Drug concentration in IL12/IL18-induced C57BL/6 mouse serum at 10 mg/kg, po pretreated for 1 hr followed by IL12 stimulation and subsequent IL18 addition and measured after 5 hrs; assay type: ADME, organism-based; settings: read-out: Drug uptake
[22] = test system: Mus musculus; test: Inhibition of IL12/IL18-induced IFNgamma production in C57BL/6 mouse at 0.3 mg/kg, po pretreated for 1 hr followed by IL12 stimulation and subsequent IL18 addition and measured after 3 hrs relative to control; assay type: functional; settings: C57BL/6, po
[23] = test system: Mus musculus; test: Inhibition of IL12/IL18-induced IFNgamma production in C57BL/6 mouse at 1 mg/kg, po pretreated for 1 hr followed by IL12 stimulation and subsequent IL18 addition and measured after 3 hrs relative to control; assay type: functional; settings: C57BL/6, po
[24] = test system: Mus musculus; test: Inhibition of IL12/IL18-induced IFNgamma production in C57BL/6 mouse at 3 mg/kg, po pretreated for 1 hr followed by IL12 stimulation and subsequent IL18 addition and measured after 3 hrs relative to control; assay type: functional; settings: C57BL/6, po
[25] = test system: Mus musculus; test: Inhibition of IL12/IL18-induced IFNgamma production in C57BL/6 mouse at 10 mg/kg, po pretreated for 1 hr followed by IL12 stimulation and subsequent IL18 addition and measured after 3 hrs relative to control; assay type: functional; settings: C57BL/6, po
[26] = Terminal drug concentration in CD40-induced B6 CB17 mouse serum at 25 mg/kg, po BID administered as nanosuspension measured 24 hrs post-last dose; assay type: ADME, organism-based; settings: read-out: Drug uptake
[27] = Terminal drug concentration in CD40-induced B6 CB17 mouse serum at 80 mg/kg, po BID administered as nanosuspension measured 24 hrs post-last dose; assay type: ADME, organism-based; settings: read-out: Drug uptake
[28] = Terminal drug concentration in CD40-induced B6 CB17 mouse serum at 250 mg/kg, po BID administered as nanosuspension measured 24 hrs post-last dose; assay type: ADME, organism-based; settings: read-out: Drug uptake
[29] = molecular target: T1, Non-receptor tyrosine-protein kinase TYK2; test: Inhibition of TYK2 JH2 (unknown origin) by morrison titration assay; settings: read-out: Ki(app)
[30] = Drug metabolism in C57BL/6 mouse plasma assessed as amide formation at 0.3 to 10 mg/kg, po; assay type: ADME, organism-based; settings: in vivo
[31] = Ratio of drug concentration in IL12/IL18-induced C57BL/6 mouse serum at 0.3 mg/kg, po to IC50 for TYK2 JH2 domain in mouse whole blood; assay type: ADME, organism-based; settings: in vivo
[32] = Ratio of drug concentration in IL12/IL18-induced C57BL/6 mouse serum at 1 mg/kg, po to IC50 for TYK2 JH2 domain in mouse whole blood; assay type: ADME, organism-based; settings: in vivo
[33] = Ratio of drug concentration in IL12/IL18-induced C57BL/6 mouse serum at 3 mg/kg, po to IC50 for TYK2 JH2 domain in mouse whole blood; assay type: ADME, organism-based; settings: in vivo
[34] = Ratio of drug concentration in IL12/IL18-induced C57BL/6 mouse serum at 10 mg/kg, po to IC50 for TYK2 JH2 domain in mouse whole blood; assay type: ADME, organism-based; settings: in vivo

T1 sequence (P29597 whole entry, the tested form may be a part): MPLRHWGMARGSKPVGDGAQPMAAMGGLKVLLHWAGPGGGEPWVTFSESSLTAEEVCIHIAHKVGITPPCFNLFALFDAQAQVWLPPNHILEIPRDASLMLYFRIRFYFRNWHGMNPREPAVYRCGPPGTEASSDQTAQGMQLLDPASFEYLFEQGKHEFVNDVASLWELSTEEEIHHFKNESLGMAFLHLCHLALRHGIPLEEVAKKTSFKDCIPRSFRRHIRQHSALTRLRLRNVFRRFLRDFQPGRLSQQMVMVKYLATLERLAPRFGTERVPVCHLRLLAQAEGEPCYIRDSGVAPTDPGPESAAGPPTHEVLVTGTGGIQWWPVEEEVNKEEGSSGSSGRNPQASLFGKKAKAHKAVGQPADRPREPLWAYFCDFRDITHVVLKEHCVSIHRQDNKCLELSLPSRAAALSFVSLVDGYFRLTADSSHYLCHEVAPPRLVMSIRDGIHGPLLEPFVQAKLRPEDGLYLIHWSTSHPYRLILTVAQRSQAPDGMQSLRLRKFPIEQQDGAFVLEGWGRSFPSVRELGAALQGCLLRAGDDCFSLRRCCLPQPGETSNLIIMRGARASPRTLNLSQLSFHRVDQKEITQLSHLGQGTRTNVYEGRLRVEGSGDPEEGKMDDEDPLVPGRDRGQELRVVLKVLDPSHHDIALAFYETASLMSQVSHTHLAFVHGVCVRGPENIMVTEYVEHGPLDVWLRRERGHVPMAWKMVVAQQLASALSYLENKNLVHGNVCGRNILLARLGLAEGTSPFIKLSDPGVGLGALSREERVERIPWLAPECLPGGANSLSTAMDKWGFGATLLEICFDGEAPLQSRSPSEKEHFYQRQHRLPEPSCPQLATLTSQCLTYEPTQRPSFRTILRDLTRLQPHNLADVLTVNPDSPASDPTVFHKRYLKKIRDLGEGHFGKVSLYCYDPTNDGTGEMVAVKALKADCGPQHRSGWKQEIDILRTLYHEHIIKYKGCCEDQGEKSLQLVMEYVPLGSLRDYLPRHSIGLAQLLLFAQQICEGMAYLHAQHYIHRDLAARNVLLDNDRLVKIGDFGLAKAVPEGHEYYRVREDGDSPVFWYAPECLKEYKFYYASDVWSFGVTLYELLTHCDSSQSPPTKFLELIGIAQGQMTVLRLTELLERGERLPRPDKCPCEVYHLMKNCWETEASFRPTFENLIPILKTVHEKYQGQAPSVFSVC
Chain of Tyrosine-protein kinase JAK1 (P23458 whole entry, the tested form may be a part): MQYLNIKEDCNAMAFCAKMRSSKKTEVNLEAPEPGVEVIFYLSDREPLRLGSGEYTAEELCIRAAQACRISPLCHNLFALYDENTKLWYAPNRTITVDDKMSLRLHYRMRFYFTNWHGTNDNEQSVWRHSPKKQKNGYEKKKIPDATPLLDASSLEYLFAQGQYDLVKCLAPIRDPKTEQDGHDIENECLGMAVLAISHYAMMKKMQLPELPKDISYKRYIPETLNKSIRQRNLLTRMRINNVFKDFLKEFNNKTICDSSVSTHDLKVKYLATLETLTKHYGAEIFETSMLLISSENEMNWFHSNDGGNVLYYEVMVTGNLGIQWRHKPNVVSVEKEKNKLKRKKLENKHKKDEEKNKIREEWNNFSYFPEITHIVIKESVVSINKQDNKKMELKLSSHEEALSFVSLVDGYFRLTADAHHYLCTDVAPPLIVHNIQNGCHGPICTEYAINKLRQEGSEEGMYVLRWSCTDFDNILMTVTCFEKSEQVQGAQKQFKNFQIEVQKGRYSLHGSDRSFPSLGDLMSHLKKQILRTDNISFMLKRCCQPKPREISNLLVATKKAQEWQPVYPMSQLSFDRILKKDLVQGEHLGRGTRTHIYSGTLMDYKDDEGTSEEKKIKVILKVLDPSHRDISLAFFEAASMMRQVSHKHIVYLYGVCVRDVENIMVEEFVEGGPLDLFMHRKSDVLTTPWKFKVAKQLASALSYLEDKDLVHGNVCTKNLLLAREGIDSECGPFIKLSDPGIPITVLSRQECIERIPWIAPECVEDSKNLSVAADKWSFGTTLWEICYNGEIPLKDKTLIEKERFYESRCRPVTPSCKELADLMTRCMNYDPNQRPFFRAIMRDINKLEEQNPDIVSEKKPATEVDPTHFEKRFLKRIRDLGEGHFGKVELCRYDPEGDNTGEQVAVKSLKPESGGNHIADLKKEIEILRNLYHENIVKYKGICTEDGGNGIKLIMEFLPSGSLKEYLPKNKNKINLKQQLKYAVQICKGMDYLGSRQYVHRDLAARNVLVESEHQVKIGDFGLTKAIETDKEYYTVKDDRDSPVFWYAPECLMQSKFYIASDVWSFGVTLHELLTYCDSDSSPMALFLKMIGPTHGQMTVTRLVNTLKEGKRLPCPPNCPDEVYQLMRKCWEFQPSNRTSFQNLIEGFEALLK
Chain of JAK1/TYK2 (P23458 whole entry, the tested form may be a part): as above
Chain of JAK1/TYK2 (P29597 whole entry, the tested form may be a part): as the sequence (P29597 whole entry, the tested form may be a part) above
Chain of Non-receptor tyrosine-protein kinase TYK2 (Mus musculus, UniProt Q9R117) (Q9R117 whole entry, the tested form may be a part): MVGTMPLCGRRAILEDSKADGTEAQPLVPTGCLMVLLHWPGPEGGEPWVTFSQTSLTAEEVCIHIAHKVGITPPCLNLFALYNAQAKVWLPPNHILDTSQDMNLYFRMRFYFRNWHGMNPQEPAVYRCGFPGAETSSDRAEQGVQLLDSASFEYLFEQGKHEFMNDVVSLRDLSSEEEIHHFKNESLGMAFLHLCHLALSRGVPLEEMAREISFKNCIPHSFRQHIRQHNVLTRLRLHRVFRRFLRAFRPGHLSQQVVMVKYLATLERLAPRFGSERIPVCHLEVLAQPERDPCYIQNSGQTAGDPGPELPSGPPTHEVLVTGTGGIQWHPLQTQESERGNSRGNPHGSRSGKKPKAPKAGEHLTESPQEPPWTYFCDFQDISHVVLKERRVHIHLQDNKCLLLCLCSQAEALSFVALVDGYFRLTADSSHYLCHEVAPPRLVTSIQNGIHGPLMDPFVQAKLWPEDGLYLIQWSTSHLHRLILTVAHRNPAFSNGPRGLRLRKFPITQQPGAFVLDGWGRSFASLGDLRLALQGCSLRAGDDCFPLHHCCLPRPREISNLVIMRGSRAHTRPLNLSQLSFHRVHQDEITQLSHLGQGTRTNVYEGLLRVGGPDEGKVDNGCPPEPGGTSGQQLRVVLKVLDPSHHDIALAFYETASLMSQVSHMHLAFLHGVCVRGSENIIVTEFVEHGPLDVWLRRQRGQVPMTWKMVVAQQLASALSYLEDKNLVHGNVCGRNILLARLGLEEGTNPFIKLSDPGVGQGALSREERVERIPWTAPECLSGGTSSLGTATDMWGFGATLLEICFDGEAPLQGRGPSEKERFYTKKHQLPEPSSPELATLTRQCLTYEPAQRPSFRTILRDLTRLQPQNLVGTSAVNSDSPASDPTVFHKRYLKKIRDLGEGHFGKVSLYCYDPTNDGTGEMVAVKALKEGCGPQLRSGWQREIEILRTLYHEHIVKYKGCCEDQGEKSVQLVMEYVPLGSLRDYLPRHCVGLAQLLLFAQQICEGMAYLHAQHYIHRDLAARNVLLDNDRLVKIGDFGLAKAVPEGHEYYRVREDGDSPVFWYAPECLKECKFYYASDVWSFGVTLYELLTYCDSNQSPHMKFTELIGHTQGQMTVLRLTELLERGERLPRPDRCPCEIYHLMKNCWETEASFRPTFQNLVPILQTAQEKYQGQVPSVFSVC
Chain of Tyrosine-protein kinase JAK2 (O60674 whole entry, the tested form may be a part): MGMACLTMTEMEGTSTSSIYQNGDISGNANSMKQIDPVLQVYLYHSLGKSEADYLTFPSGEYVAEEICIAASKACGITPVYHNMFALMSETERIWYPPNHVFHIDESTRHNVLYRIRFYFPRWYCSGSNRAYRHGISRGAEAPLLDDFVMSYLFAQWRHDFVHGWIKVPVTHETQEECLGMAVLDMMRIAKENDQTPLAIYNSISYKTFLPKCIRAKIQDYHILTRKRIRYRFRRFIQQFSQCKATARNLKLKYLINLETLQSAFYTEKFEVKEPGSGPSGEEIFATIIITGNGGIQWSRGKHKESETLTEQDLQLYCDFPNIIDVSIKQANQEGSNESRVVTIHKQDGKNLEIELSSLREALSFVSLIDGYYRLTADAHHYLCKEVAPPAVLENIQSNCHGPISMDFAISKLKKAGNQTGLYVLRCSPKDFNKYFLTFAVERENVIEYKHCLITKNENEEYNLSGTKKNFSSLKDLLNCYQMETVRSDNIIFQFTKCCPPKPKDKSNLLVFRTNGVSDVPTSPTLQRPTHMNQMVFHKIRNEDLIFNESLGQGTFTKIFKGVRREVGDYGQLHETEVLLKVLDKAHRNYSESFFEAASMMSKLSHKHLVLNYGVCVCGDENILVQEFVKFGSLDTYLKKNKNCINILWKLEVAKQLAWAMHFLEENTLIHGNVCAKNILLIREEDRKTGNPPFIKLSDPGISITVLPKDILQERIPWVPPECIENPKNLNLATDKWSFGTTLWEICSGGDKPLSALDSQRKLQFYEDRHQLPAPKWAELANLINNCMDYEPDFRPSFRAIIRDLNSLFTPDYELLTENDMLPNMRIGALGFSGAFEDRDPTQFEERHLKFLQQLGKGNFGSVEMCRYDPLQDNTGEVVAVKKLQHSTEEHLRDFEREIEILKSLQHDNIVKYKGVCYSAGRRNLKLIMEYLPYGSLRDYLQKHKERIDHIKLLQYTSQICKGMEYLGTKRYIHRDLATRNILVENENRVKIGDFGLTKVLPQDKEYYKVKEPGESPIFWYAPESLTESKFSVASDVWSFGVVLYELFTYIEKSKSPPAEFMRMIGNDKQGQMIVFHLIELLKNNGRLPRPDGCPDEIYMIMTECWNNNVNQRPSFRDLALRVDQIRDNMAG

Structure (SMILES): [2H]C([2H])([2H])NC(=O)c1nnc(Nc2ccccn2)cc1Nc1ccccc1S(C)(=O)=O
- IC50 [1]: 0.53 nM
- IC50 [2]: > 50000 nM
- IC50 [3]: > 40000 nM
- IC50 [4]: > 50000 nM
- IC50 [5]: 0.53 nM
- IC50 [6]: 130 nM
- Papp A→B [7]: 28 ×10⁻⁶ cm/s
- efflux ratio [8]: 2.1
- IC50 [9]: 120 nM
- half-life [10]: 48 min
- half-life [11]: 49 min
- half-life [12]: 46 min
- half-life [13]: 4 min
- half-life [14]: 19 min
- logP [15]: 2.45
- Cmax [16]: 10500 nM
- AUC(0-t) at 7 h [17]: 24.3 µM·h
- concentration at 5 h [18]: 24 nM
- concentration at 5 h [19]: 69 nM
- concentration at 5 h [20]: 133 nM
- concentration at 5 h [21]: 503 nM
- inhibition in vivo at 0.3 mg/kg [22]: 13%
- inhibition in vivo at 1 mg/kg [23]: 56%
- inhibition in vivo at 3 mg/kg [24]: 77%
- inhibition in vivo at 10 mg/kg [25]: 91%
- concentration at 24 h [26]: 12 nM
- concentration at 24 h [27]: 67 nM
- concentration at 24 h [28]: 77 nM
- Ki [29]: 0.07 nM
- Drug metabolism [30]: Metabolite_Notdetected
- Ratio [31]: 0.2
- Ratio [32]: 0.5
- Ratio [33]: 1
- Ratio [34]: 4
